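GI50 is the concentration that inhibits growth by half. TGI: total growth inhibition.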
Legend:
Experiment in all cases: NCI-60 cell line screen, 384-well format
OVCAR-3 ovarian = system: OVCAR-3 ovarian
LOX IMVI melanoma = system: LOX IMVI melanoma
DU-145 prostate = system: DU-145 prostate
SW-620 colon = system: SW-620 colon
RXF 393 renal = system: RXF 393 renal
SK-OV-3 ovarian = system: SK-OV-3 ovarian
SNB-75 CNS = system: SNB-75 CNS
T-47D breast = system: T-47D breast
MOLT-4 leukemia = system: MOLT-4 leukemia
MDA-MB-468 breast = system: MDA-MB-468 breast
HOP-62 NSCLC = system: HOP-62 NSCLC
SF-268 CNS = system: SF-268 CNS
KM12 colon = system: KM12 colon
HCT-15 colon = system: HCT-15 colon
NCI-H322M lung = system: NCI-H322M lung
HS 578T breast = system: HS 578T breast
COLO 205 colon = system: COLO 205 colon
NCI/ADR-RES ovarian = system: NCI/ADR-RES ovarian
A549 NSCLC = system: A549 NSCLC
MDA-MB-231 breast = system: MDA-MB-231 breast
ACHN renal = system: ACHN renal
EKVX NSCLC = system: EKVX NSCLC
CCRF-CEM leukemia = system: CCRF-CEM leukemia
M14 melanoma = system: M14 melanoma
NCI-H522 lung = system: NCI-H522 lung
MALME-3M melanoma = system: MALME-3M melanoma
PC-3 prostate = system: PC-3 prostate
RPMI-8226 leukemia = system: RPMI-8226 leukemia
NCI-H226 lung = system: NCI-H226 lung
MDA-MB-435 melanoma = system: MDA-MB-435 melanoma
CAKI-1 renal = system: CAKI-1 renal
TK-10 renal = system: TK-10 renal
IGROV1 ovarian = system: IGROV1 ovarian
K-562 leukemia = system: K-562 leukemia
SR leukemia = system: SR leukemia
UACC-62 melanoma = system: UACC-62 melanoma
MCF7 breast = system: MCF7 breast
SF-539 CNS = system: SF-539 CNS
NCI-H23 lung = system: NCI-H23 lung
A498 renal = system: A498 renal
HCT-116 colon = system: HCT-116 colon
SF-295 CNS = system: SF-295 CNS
BT-549 breast = system: BT-549 breast
HT29 colon = system: HT29 colon
SK-MEL-2 melanoma = system: SK-MEL-2 melanoma
SNB-19 CNS = system: SNB-19 CNS
SK-MEL-5 melanoma = system: SK-MEL-5 melanoma
SN12C renal = system: SN12C renal
SK-MEL-28 melanoma = system: SK-MEL-28 melanoma
UACC-257 melanoma = system: UACC-257 melanoma
HL-60(TB) leukemia = system: HL-60(TB) leukemia
U251 glioblastoma = system: U251 glioblastoma
OVCAR-4 ovarian = system: OVCAR-4 ovarian
NCI-H460 NSCLC = system: NCI-H460 NSCLC

For `Cc1noc2c1-c1ccccc1C(c1ccc(Cl)cc1)=N[C@H]2CC(N)=O`, the GI50 (OVCAR-3 ovarian) was 0.812 µM, the TGI (OVCAR-3 ovarian) was 29.8 µM and the GI50 (LOX IMVI melanoma) was 0.473 µM. It also gave a TGI (LOX IMVI melanoma) of 18.1 µM, a GI50 (DU-145 prostate) of 23.6 µM and a TGI (DU-145 prostate) of over 100 µM. The GI50 (SW-620 colon) was 21.8 µM, the TGI (SW-620 colon) was 71.7 µM and the GI50 (RXF 393 renal) was 11.6 µM. The TGI (RXF 393 renal) was 34.2 µM, the GI50 (SK-OV-3 ovarian) was 0.491 µM and the TGI (SK-OV-3 ovarian) was 38.8 µM. The GI50 (SNB-75 CNS) was 15.7 µM, the TGI (SNB-75 CNS) was over 100 µM and the GI50 (T-47D breast) was 6.48 µM. The TGI (T-47D breast) was 82 µM, the GI50 (MOLT-4 leukemia) was 0.549 µM and the TGI (MOLT-4 leukemia) was 15.8 µM. For the same molecule, the GI50 (MDA-MB-468 breast) was 0.685 µM, the TGI (MDA-MB-468 breast) was 23 µM and the GI50 (HOP-62 NSCLC) was 0.4 µM. For the same molecule, the TGI (HOP-62 NSCLC) was 34.1 µM, the GI50 (SF-268 CNS) was 18.1 µM and the TGI (SF-268 CNS) was 67.7 µM. The GI50 (KM12 colon) was 6.93 µM, the TGI (KM12 colon) was 44.3 µM and the GI50 (HCT-15 colon) was 0.442 µM. The TGI (HCT-15 colon) was 19.5 µM, the GI50 (NCI-H322M lung) was 3.01 µM and the TGI (NCI-H322M lung) was over 100 µM. It also gave a GI50 (HS 578T breast) of 0.292 µM, a TGI (HS 578T breast) of 28.3 µM and a GI50 (COLO 205 colon) of 0.78 µM. It also gave a TGI (COLO 205 colon) of 29 µM, a GI50 (NCI/ADR-RES ovarian) of 0.639 µM and a TGI (NCI/ADR-RES ovarian) of 20.4 µM. The GI50 (A549 NSCLC) was 10.3 µM, the TGI (A549 NSCLC) was over 100 µM and the GI50 (MDA-MB-231 breast) was 0.612 µM. It also gave a TGI (MDA-MB-231 breast) of 94.4 µM, a GI50 (ACHN renal) of 11.5 µM and a TGI (ACHN renal) of over 100 µM. It also gave a GI50 (EKVX NSCLC) of 36.2 µM, a TGI (EKVX NSCLC) of over 100 µM and a GI50 (CCRF-CEM leukemia) of 0.629 µM. It also gave a TGI (CCRF-CEM leukemia) of 22.9 µM, a GI50 (M14 melanoma) of 13.6 µM and a TGI (M14 melanoma) of over 100 µM. It also gave a GI50 (NCI-H522 lung) of 0.04 µM, a TGI (NCI-H522 lung) of 0.455 µM and a GI50 (MALME-3M melanoma) of 16.4 µM. It also gave a TGI (MALME-3M melanoma) of 61.4 µM, a GI50 (PC-3 prostate) of 0.723 µM and a TGI (PC-3 prostate) of over 100 µM. It also gave a GI50 (RPMI-8226 leukemia) of 0.298 µM, a TGI (RPMI-8226 leukemia) of 12.5 µM and a GI50 (NCI-H226 lung) of 12.2 µM. For the same molecule, the TGI (NCI-H226 lung) was 44 µM, the GI50 (MDA-MB-435 melanoma) was 6.55 µM and the TGI (MDA-MB-435 melanoma) was 43.5 µM. It also gave a GI50 (CAKI-1 renal) of 0.227 µM, a TGI (CAKI-1 renal) of 54.3 µM and a GI50 (TK-10 renal) of 0.504 µM. For the same molecule, the TGI (TK-10 renal) was 34.3 µM, the GI50 (IGROV1 ovarian) was 0.564 µM and the TGI (IGROV1 ovarian) was 30.1 µM. For the same molecule, the GI50 (K-562 leukemia) was 0.697 µM, the TGI (K-562 leukemia) was 28 µM and the GI50 (SR leukemia) was 0.0478 µM. The TGI (SR leukemia) was 1.43 µM, the GI50 (UACC-62 melanoma) was 0.268 µM and the TGI (UACC-62 melanoma) was 42.1 µM. It also gave a GI50 (MCF7 breast) of 0.312 µM, a TGI (MCF7 breast) of 17 µM and a GI50 (SF-539 CNS) of 13 µM. The TGI (SF-539 CNS) was over 100 µM, the GI50 (NCI-H23 lung) was 1.14 µM and the TGI (NCI-H23 lung) was 26.8 µM. It also gave a GI50 (A498 renal) of 1.41 µM, a TGI (A498 renal) of 94.4 µM and a GI50 (HCT-116 colon) of 13.5 µM. The TGI (HCT-116 colon) was 54.7 µM, the GI50 (SF-295 CNS) was 18.8 µM and the TGI (SF-295 CNS) was over 100 µM. The GI50 (BT-549 breast) was 0.292 µM, the TGI (BT-549 breast) was 18.7 µM and the GI50 (HT29 colon) was 0.508 µM. The TGI (HT29 colon) was 59.2 µM, the GI50 (SK-MEL-2 melanoma) was 34.2 µM and the TGI (SK-MEL-2 melanoma) was 53.2 µM. It also gave a GI50 (SNB-19 CNS) of 4.91 µM, a TGI (SNB-19 CNS) of over 100 µM and a GI50 (SK-MEL-5 melanoma) of 1.03 µM. It also gave a TGI (SK-MEL-5 melanoma) of 21.3 µM, a GI50 (SN12C renal) of 24.2 µM and a TGI (SN12C renal) of over 100 µM. For the same molecule, the GI50 (SK-MEL-28 melanoma) was 21.4 µM, the TGI (SK-MEL-28 melanoma) was over 100 µM and the GI50 (UACC-257 melanoma) was 16.4 µM. It also gave a TGI (UACC-257 melanoma) of over 100 µM, a GI50 (HL-60(TB) leukemia) of 0.102 µM and a TGI (HL-60(TB) leukemia) of 0.229 µM. For the same molecule, the GI50 (U251 glioblastoma) was 10.2 µM, the TGI (U251 glioblastoma) was over 100 µM and the GI50 (OVCAR-4 ovarian) was 0.367 µM. It also gave a TGI (OVCAR-4 ovarian) of 3.29 µM, a GI50 (NCI-H460 NSCLC) of 19 µM and a TGI (NCI-H460 NSCLC) of over 100 µM.

From PubChem BioAssay (NCI)
